# According to ChEMBL document CHEMBL3045245, “Synthesis and antitumor activities of certain novel 2-amino-9-(4-halostyryl)-4H-pyrano[3,2-h]quinoline derivatives” (Med Chem Res, 2012):
# Test system: HepG2
# Assay: Cytotoxicity against Homo sapiens (human) HepG2 cells after 48 hr by MTT assay
# Type: functional, cell-based
# Conditions: HepG2, 48 h
row,SMILES,IC50 [µg/mL]
1,CCOC(=O)C1=C(N)Oc2c(ccc3ccc(/C=C/c4ccc(Cl)cc4)nc23)C1c1ccc(Cl)cc1 (stereo not drawn),7.9
2,CCOC(=O)C1=C(N)Oc2c(ccc3ccc(/C=C/c4ccc(Cl)cc4)nc23)C1c1ccc(Br)cc1 (stereo not drawn),28.6
3,CCOC(=O)C1=C(N)Oc2c(ccc3ccc(/C=C/c4ccc(F)cc4)nc23)C1c1ccc(Br)cc1 (stereo not drawn),37.1

# Test system: HepG2
# Assay: Cytotoxicity against Homo sapiens (human) HepG2 cells assessed as cell viability at 1.56 ug/ml after 48 hr by MTT assay
# Type: functional
# Conditions: HepG2, 48 h, read-out: Activity
row,SMILES,viability at 1.56 µg/mL [%]
1,CCOC(=O)C1=C(N)Oc2c(ccc3ccc(/C=C/c4ccc(Cl)cc4)nc23)C1c1ccc(Cl)cc1 (stereo not drawn),81.9
2,CCOC(=O)C1=C(N)Oc2c(ccc3ccc(/C=C/c4ccc(Cl)cc4)nc23)C1c1ccc(Br)cc1 (stereo not drawn),89.4
3,CCOC(=O)C1=C(N)Oc2c(ccc3ccc(/C=C/c4ccc(F)cc4)nc23)C1c1ccc(Br)cc1 (stereo not drawn),97.1

# Test system: HepG2
# Assay: Cytotoxicity against Homo sapiens (human) HepG2 cells assessed as cell viability at 6.25 ug/ml after 48 hr by MTT assay
# Type: functional
# Conditions: HepG2, 48 h, read-out: Activity
row,SMILES,viability at 6.25 µg/mL [%]
1,CCOC(=O)C1=C(N)Oc2c(ccc3ccc(/C=C/c4ccc(Cl)cc4)nc23)C1c1ccc(Cl)cc1 (stereo not drawn),53
2,CCOC(=O)C1=C(N)Oc2c(ccc3ccc(/C=C/c4ccc(Cl)cc4)nc23)C1c1ccc(Br)cc1 (stereo not drawn),69.7
3,CCOC(=O)C1=C(N)Oc2c(ccc3ccc(/C=C/c4ccc(F)cc4)nc23)C1c1ccc(Br)cc1 (stereo not drawn),83.3

# Test system: HepG2
# Assay: Cytotoxicity against Homo sapiens (human) HepG2 cells assessed as cell viability at 3.125 ug/ml after 48 hr by MTT assay
# Type: functional
# Conditions: HepG2, 48 h, read-out: Activity
row,SMILES,viability at 3.125 µg/mL [%]
1,CCOC(=O)C1=C(N)Oc2c(ccc3ccc(/C=C/c4ccc(Cl)cc4)nc23)C1c1ccc(Cl)cc1 (stereo not drawn),65.3
2,CCOC(=O)C1=C(N)Oc2c(ccc3ccc(/C=C/c4ccc(Cl)cc4)nc23)C1c1ccc(Br)cc1 (stereo not drawn),76.3
3,CCOC(=O)C1=C(N)Oc2c(ccc3ccc(/C=C/c4ccc(F)cc4)nc23)C1c1ccc(Br)cc1 (stereo not drawn),94.6

# Test system: HepG2
# Assay: Cytotoxicity against Homo sapiens (human) HepG2 cells assessed as cell viability at 25 ug/ml after 48 hr by MTT assay
# Type: functional
# Conditions: HepG2, 48 h, read-out: Activity
row,SMILES,viability at 25 µg/mL [%]
1,CCOC(=O)C1=C(N)Oc2c(ccc3ccc(/C=C/c4ccc(Cl)cc4)nc23)C1c1ccc(Cl)cc1 (stereo not drawn),37.9
2,CCOC(=O)C1=C(N)Oc2c(ccc3ccc(/C=C/c4ccc(Cl)cc4)nc23)C1c1ccc(Br)cc1 (stereo not drawn),53.4
3,CCOC(=O)C1=C(N)Oc2c(ccc3ccc(/C=C/c4ccc(F)cc4)nc23)C1c1ccc(Br)cc1 (stereo not drawn),62.9

# Test system: HepG2
# Assay: Cytotoxicity against Homo sapiens (human) HepG2 cells assessed as cell viability at 12.5 ug/ml after 48 hr by MTT assay
# Type: functional
# Conditions: HepG2, 48 h, read-out: Activity
row,SMILES,viability at 12.5 µg/mL [%]
1,CCOC(=O)C1=C(N)Oc2c(ccc3ccc(/C=C/c4ccc(Cl)cc4)nc23)C1c1ccc(Cl)cc1 (stereo not drawn),45.6
2,CCOC(=O)C1=C(N)Oc2c(ccc3ccc(/C=C/c4ccc(Cl)cc4)nc23)C1c1ccc(Br)cc1 (stereo not drawn),61.9
3,CCOC(=O)C1=C(N)Oc2c(ccc3ccc(/C=C/c4ccc(F)cc4)nc23)C1c1ccc(Br)cc1 (stereo not drawn),76.4

# Test system: not listed separately
# Assay: Cytotoxicity against Homo sapiens (human) HCT cells after 48 hr by MTT assay
# Type: functional, cell-based
# Conditions: not given
row,SMILES,IC50 [µg/mL]
1,CCOC(=O)C1=C(N)Oc2c(ccc3ccc(/C=C/c4ccc(Cl)cc4)nc23)C1c1ccc(Cl)cc1 (stereo not drawn),13
2,CCOC(=O)C1=C(N)Oc2c(ccc3ccc(/C=C/c4ccc(Cl)cc4)nc23)C1c1ccc(Br)cc1 (stereo not drawn),20.4
3,CCOC(=O)C1=C(N)Oc2c(ccc3ccc(/C=C/c4ccc(F)cc4)nc23)C1c1ccc(Br)cc1 (stereo not drawn),26.1

# Test system: HepG2
# Assay: Cytotoxicity against Homo sapiens (human) HepG2 cells assessed as cell viability at 50 ug/ml after 48 hr by MTT assay
# Type: functional
# Conditions: HepG2, 48 h, read-out: Activity
row,SMILES,viability at 50 µg/mL [%]
1,CCOC(=O)C1=C(N)Oc2c(ccc3ccc(/C=C/c4ccc(Cl)cc4)nc23)C1c1ccc(Cl)cc1 (stereo not drawn),28.1
2,CCOC(=O)C1=C(N)Oc2c(ccc3ccc(/C=C/c4ccc(Cl)cc4)nc23)C1c1ccc(Br)cc1 (stereo not drawn),39.8
3,CCOC(=O)C1=C(N)Oc2c(ccc3ccc(/C=C/c4ccc(F)cc4)nc23)C1c1ccc(Br)cc1 (stereo not drawn),34.6

# Test system: not listed separately
# Assay: Cytotoxicity against Homo sapiens (human) HCT cells assessed as cell viability at 1.56 ug/ml after 48 hr by MTT assay
# Type: functional
# Conditions: read-out: Activity
row,SMILES,viability at 1.56 µg/mL [%]
1,CCOC(=O)C1=C(N)Oc2c(ccc3ccc(/C=C/c4ccc(Cl)cc4)nc23)C1c1ccc(Cl)cc1 (stereo not drawn),78.6
2,CCOC(=O)C1=C(N)Oc2c(ccc3ccc(/C=C/c4ccc(Cl)cc4)nc23)C1c1ccc(Br)cc1 (stereo not drawn),82.9
3,CCOC(=O)C1=C(N)Oc2c(ccc3ccc(/C=C/c4ccc(F)cc4)nc23)C1c1ccc(Br)cc1 (stereo not drawn),100

# Test system: not listed separately
# Assay: Cytotoxicity against Homo sapiens (human) HCT cells assessed as cell viability at 3.125 ug/ml after 48 hr by MTT assay
# Type: functional
# Conditions: read-out: Activity
row,SMILES,viability at 3.125 µg/mL [%]
1,CCOC(=O)C1=C(N)Oc2c(ccc3ccc(/C=C/c4ccc(Cl)cc4)nc23)C1c1ccc(Cl)cc1 (stereo not drawn),69.3
2,CCOC(=O)C1=C(N)Oc2c(ccc3ccc(/C=C/c4ccc(Cl)cc4)nc23)C1c1ccc(Br)cc1 (stereo not drawn),74.3
3,CCOC(=O)C1=C(N)Oc2c(ccc3ccc(/C=C/c4ccc(F)cc4)nc23)C1c1ccc(Br)cc1 (stereo not drawn),98.5

# Test system: not listed separately
# Assay: Cytotoxicity against Homo sapiens (human) HCT cells assessed as cell viability at 6.25 ug/ml after 48 hr by MTT assay
# Type: functional
# Conditions: read-out: Activity
row,SMILES,viability at 6.25 µg/mL [%]
1,CCOC(=O)C1=C(N)Oc2c(ccc3ccc(/C=C/c4ccc(Cl)cc4)nc23)C1c1ccc(Cl)cc1 (stereo not drawn),64.1
2,CCOC(=O)C1=C(N)Oc2c(ccc3ccc(/C=C/c4ccc(Cl)cc4)nc23)C1c1ccc(Br)cc1 (stereo not drawn),70.4
3,CCOC(=O)C1=C(N)Oc2c(ccc3ccc(/C=C/c4ccc(F)cc4)nc23)C1c1ccc(Br)cc1 (stereo not drawn),84.9

# Test system: not listed separately
# Assay: Cytotoxicity against Homo sapiens (human) HCT cells assessed as cell viability at 12.5 ug/ml after 48 hr by MTT assay
# Type: functional
# Conditions: read-out: Activity
row,SMILES,viability at 12.5 µg/mL [%]
1,CCOC(=O)C1=C(N)Oc2c(ccc3ccc(/C=C/c4ccc(Cl)cc4)nc23)C1c1ccc(Cl)cc1 (stereo not drawn),54.3
2,CCOC(=O)C1=C(N)Oc2c(ccc3ccc(/C=C/c4ccc(Cl)cc4)nc23)C1c1ccc(Br)cc1 (stereo not drawn),61.3
3,CCOC(=O)C1=C(N)Oc2c(ccc3ccc(/C=C/c4ccc(F)cc4)nc23)C1c1ccc(Br)cc1 (stereo not drawn),78.7

# Test system: not listed separately
# Assay: Cytotoxicity against Homo sapiens (human) HCT cells assessed as cell viability at 25 ug/ml after 48 hr by MTT assay
# Type: functional
# Conditions: read-out: Activity
row,SMILES,viability at 25 µg/mL [%]
1,CCOC(=O)C1=C(N)Oc2c(ccc3ccc(/C=C/c4ccc(Cl)cc4)nc23)C1c1ccc(Cl)cc1 (stereo not drawn),20.4
2,CCOC(=O)C1=C(N)Oc2c(ccc3ccc(/C=C/c4ccc(Cl)cc4)nc23)C1c1ccc(Br)cc1 (stereo not drawn),45.8
3,CCOC(=O)C1=C(N)Oc2c(ccc3ccc(/C=C/c4ccc(F)cc4)nc23)C1c1ccc(Br)cc1 (stereo not drawn),53.7

# Test system: not listed separately
# Assay: Cytotoxicity against Homo sapiens (human) HCT cells assessed as cell viability at 50 ug/ml after 48 hr by MTT assay
# Type: functional
# Conditions: read-out: Activity
row,SMILES,viability at 50 µg/mL [%]
1,CCOC(=O)C1=C(N)Oc2c(ccc3ccc(/C=C/c4ccc(Cl)cc4)nc23)C1c1ccc(Cl)cc1 (stereo not drawn),14.1
2,CCOC(=O)C1=C(N)Oc2c(ccc3ccc(/C=C/c4ccc(Cl)cc4)nc23)C1c1ccc(Br)cc1 (stereo not drawn),30.7
3,CCOC(=O)C1=C(N)Oc2c(ccc3ccc(/C=C/c4ccc(F)cc4)nc23)C1c1ccc(Br)cc1 (stereo not drawn),17.4

# Test system: MCF7
# Assay: Cytotoxicity against Homo sapiens (human) MCF7 cells after 48 hr by MTT assay
# Type: functional, cell-based
# Conditions: MCF7, 48 h
row,SMILES,IC50 [µg/mL]
1,CCOC(=O)C1=C(N)Oc2c(ccc3ccc(/C=C/c4ccc(Cl)cc4)nc23)C1c1ccc(Cl)cc1 (stereo not drawn),5.5
2,CCOC(=O)C1=C(N)Oc2c(ccc3ccc(/C=C/c4ccc(Cl)cc4)nc23)C1c1ccc(Br)cc1 (stereo not drawn),10.3
3,CCOC(=O)C1=C(N)Oc2c(ccc3ccc(/C=C/c4ccc(F)cc4)nc23)C1c1ccc(Br)cc1 (stereo not drawn),38.4

# Test system: MCF7
# Assay: Cytotoxicity against Homo sapiens (human) MCF7 cells assessed as cell viability at 1.56 ug/ml after 48 hr by MTT assay
# Type: functional
# Conditions: MCF7, 48 h, read-out: Activity
row,SMILES,viability at 1.56 µg/mL [%]
1,CCOC(=O)C1=C(N)Oc2c(ccc3ccc(/C=C/c4ccc(Cl)cc4)nc23)C1c1ccc(Cl)cc1 (stereo not drawn),78.1
2,CCOC(=O)C1=C(N)Oc2c(ccc3ccc(/C=C/c4ccc(Cl)cc4)nc23)C1c1ccc(Br)cc1 (stereo not drawn),80.9
3,CCOC(=O)C1=C(N)Oc2c(ccc3ccc(/C=C/c4ccc(F)cc4)nc23)C1c1ccc(Br)cc1 (stereo not drawn),99.3

# Test system: MCF7
# Assay: Cytotoxicity against Homo sapiens (human) MCF7 cells assessed as cell viability at 3.125 ug/ml after 48 hr by MTT assay
# Type: functional
# Conditions: MCF7, 48 h, read-out: Activity
row,SMILES,viability at 3.125 µg/mL [%]
1,CCOC(=O)C1=C(N)Oc2c(ccc3ccc(/C=C/c4ccc(Cl)cc4)nc23)C1c1ccc(Cl)cc1 (stereo not drawn),67.8
2,CCOC(=O)C1=C(N)Oc2c(ccc3ccc(/C=C/c4ccc(Cl)cc4)nc23)C1c1ccc(Br)cc1 (stereo not drawn),76
3,CCOC(=O)C1=C(N)Oc2c(ccc3ccc(/C=C/c4ccc(F)cc4)nc23)C1c1ccc(Br)cc1 (stereo not drawn),93.9

# Test system: MCF7
# Assay: Cytotoxicity against Homo sapiens (human) MCF7 cells assessed as cell viability at 6.25 ug/ml after 48 hr by MTT assay
# Type: functional
# Conditions: MCF7, 48 h, read-out: Activity
row,SMILES,viability at 6.25 µg/mL [%]
1,CCOC(=O)C1=C(N)Oc2c(ccc3ccc(/C=C/c4ccc(Cl)cc4)nc23)C1c1ccc(Cl)cc1 (stereo not drawn),47.2
2,CCOC(=O)C1=C(N)Oc2c(ccc3ccc(/C=C/c4ccc(Cl)cc4)nc23)C1c1ccc(Br)cc1 (stereo not drawn),63.5
3,CCOC(=O)C1=C(N)Oc2c(ccc3ccc(/C=C/c4ccc(F)cc4)nc23)C1c1ccc(Br)cc1 (stereo not drawn),85.5

# Test system: MCF7
# Assay: Cytotoxicity against Homo sapiens (human) MCF7 cells assessed as cell viability at 12.5 ug/ml after 48 hr by MTT assay
# Type: functional
# Conditions: MCF7, 48 h, read-out: Activity
row,SMILES,viability at 12.5 µg/mL [%]
1,CCOC(=O)C1=C(N)Oc2c(ccc3ccc(/C=C/c4ccc(Cl)cc4)nc23)C1c1ccc(Cl)cc1 (stereo not drawn),41.6
2,CCOC(=O)C1=C(N)Oc2c(ccc3ccc(/C=C/c4ccc(Cl)cc4)nc23)C1c1ccc(Br)cc1 (stereo not drawn),45.6
3,CCOC(=O)C1=C(N)Oc2c(ccc3ccc(/C=C/c4ccc(F)cc4)nc23)C1c1ccc(Br)cc1 (stereo not drawn),74.6

# Test system: MCF7
# Assay: Cytotoxicity against Homo sapiens (human) MCF7 cells assessed as cell viability at 25 ug/ml after 48 hr by MTT assay
# Type: functional
# Conditions: MCF7, 48 h, read-out: Activity
row,SMILES,viability at 25 µg/mL [%]
1,CCOC(=O)C1=C(N)Oc2c(ccc3ccc(/C=C/c4ccc(Cl)cc4)nc23)C1c1ccc(Cl)cc1 (stereo not drawn),34.6
2,CCOC(=O)C1=C(N)Oc2c(ccc3ccc(/C=C/c4ccc(Cl)cc4)nc23)C1c1ccc(Br)cc1 (stereo not drawn),37.9
3,CCOC(=O)C1=C(N)Oc2c(ccc3ccc(/C=C/c4ccc(F)cc4)nc23)C1c1ccc(Br)cc1 (stereo not drawn),67

# Test system: MCF7
# Assay: Cytotoxicity against Homo sapiens (human) MCF7 cells assessed as cell viability at 50 ug/ml after 48 hr by MTT assay
# Type: functional
# Conditions: MCF7, 48 h, read-out: Activity
row,SMILES,viability at 50 µg/mL [%]
1,CCOC(=O)C1=C(N)Oc2c(ccc3ccc(/C=C/c4ccc(Cl)cc4)nc23)C1c1ccc(Cl)cc1 (stereo not drawn),27.2
2,CCOC(=O)C1=C(N)Oc2c(ccc3ccc(/C=C/c4ccc(Cl)cc4)nc23)C1c1ccc(Br)cc1 (stereo not drawn),29.7
3,CCOC(=O)C1=C(N)Oc2c(ccc3ccc(/C=C/c4ccc(F)cc4)nc23)C1c1ccc(Br)cc1 (stereo not drawn),37.6
